Test results: patent US12606543B2, “Indole derivatives as serotonergic agents useful for the treatment of disorders related thereto” (priority 2023, dated 2026)

How the values were obtained:
[1] = Plasma protein binding by equilibrium dialysis, human; type: in vitro ADME; conditions: for recovery at 6 h, 1 µM / fraction unbound at 6 h, 1 μM: human, plasma; for fraction unbound at 6 h, 1 μM: read-out: % Bound (converted)
Experimental: (§1) The final concentration of compound was 1 μM. The final concentration of DMSO was 0.5%. Ketoconazole was used as positive control in the assay.
(§2) The assay was performed in duplicate.
(§3) All calculations were carried out using Microsoft Excel. […] The percentages of bound compound were calculated as follows: […]
(§4) Ketoconazole was used as positive control in the assay.

[2] = Plasma protein binding by equilibrium dialysis, dog; type: in vitro ADME; conditions: for recovery at 6 h, 1 µM: dog
Experimental: as §1, §2, §3, §4

[3] = Plasma protein binding by equilibrium dialysis, mouse; type: in vitro ADME; conditions: for recovery at 6 h, 1 µM: CD-1, mouse, plasma
Experimental: as §1, §2, §3, §4

[4] = Plasma protein binding by equilibrium dialysis, rat
Experimental: 1. The Frozen Plasma (Stored at −80° C.) was Thawed Immediately in a 37° C. Water Bath.
(§5) The working solution of test compounds and control compound was prepared in DMSO at the concentration of 200 μM, and then the working solution was spiked into plasma. The final concentration of compound was 1 μM. The final concentration of DMSO was 0.5%. Ketoconazole was used as positive control in the assay.
The dialysis membranes were soaked in ultrapure water for 60 minutes to separate strips, then in 20% ethanol for 20 minutes, finally in dialysis buffer for 20 minutes.
The dialysis set up was assembled according to the manufacturer's instruction. Each Cell was with 150 μL of plasma sample and dialyzed against equal volume of dialysis buffer (PBS). The assay was performed in duplicate. The dialysis plate was sealed and incubated in an incubator at 37° C. with 5% CO2 at 100 rpm for 6 hours. At the end of incubation, 50 μL of samples from both buffer and plasma chambers were transferred to wells of a 96-well plate.
50 μL of plasma was added to each buffer samples and an equal volume of PBS was supplemented to the collected plasma sample. 400 μL of precipitation buffer acetonitrile containing internal standards (IS, 200 nM labetalol, 100 nM tolbutamide and 100 nM ketoprofen) was added to precipitate protein and release compounds. Samples were vortexed for 2 minutes and centrifuged for 30 minutes at 3,220 g. Aliquot of 50 μL of the supernatant was diluted by 150 μL acetonitrile containing internal standards: ultra-pure H2O=1:1, and the mixture was used for LC-MS/MS analysis.
All calculations were carried out using Microsoft Excel. The concentrations of test compounds in the buffer and plasma chambers were determined from peak area ratios. The percentages of bound compound were calculated as follows: […]
as §5, with “[…].” for “μM.”

[5] = human plasma, equilibrium dialysis, 37° C., 6 hours
[6] = mouse plasma, equilibrium dialysis, 37° C., 6 hours

In the case of `CC(=O)N1CCN(c2ccc(OCC3COC(Cn4ccnc4)(c4ccc(Cl)cc4Cl)O3)cc2)CC1` (stereo not shown) [Ketoconazole, reference compound], the “% Remaining @ 6 hours” value ([1]; Human plasma, 1 μM, 6 hours, 37° C.) is reported as 114.03%, the “% Remaining @ 6 hours” value ([1]; human plasma, 6 hours) is reported as 99.64% and the recovery at 6 h, 1 µM ([1]; Human plasma, 1 μM, equilibrium dialysis 6 hours) is reported as 112%. For the same compound, the fraction unbound at 6 h, 1 μM ([1]; Human plasma, 1 μM, equilibrium dialysis 6 hours, 37° C.) was 0.0088, the recovery at 6 h, 1 µM [1, 5] was 101% and the fraction unbound at 6 h, 1 μM [1, 5] was 0.0076. It also gave a recovery at 6 h, 1 µM ([2]; Beagle, Dog plasma, 1 μM, equilibrium dialysis 6 hours) of 87.2%, a recovery at 6 h, 1 µM ([2]; Beagle, dog plasma, equilibrium dialysis, 37° C., 6 hours) of 86.1% and a fraction unbound at 6 h, 1 μM ([2]; Beagle, dog plasma, equilibrium dialysis, 37° C., 6 hours, read-out: % Bound (converted)) of 0.0105. The “% Remaining @ 6 hours” value ([2]; Dog plasma, 1 μM, 6 hours, 37° C.) was 92.22%, the “% Remaining @ 6 hours” value ([2]; dog plasma, 6 hours) was 87.36% and the recovery at 6 h, 1 µM ([3]; Mouse plasma, 1 μM, equilibrium dialysis 6 hours) was 109%. For the same compound, the recovery at 6 h, 1 µM [3, 6] was 94.7%, the fraction unbound at 6 h, 1 μM ([3]; CD-1, Mouse plasma, 1 μM, equilibrium dialysis 6 hours, 37° C., read-out: % Bound (converted)) was 0.0068 and the “% Remaining @ 6 hours” value ([3]; Mouse plasma, 1 μM, 6 hours, 37° C.) was 103.60%. The “% Remaining @ 6 hours” value ([3]; mouse plasma, 6 hours) was 108.54%, the “% Bound” value [3, 6] was 99.32% and the “% Remaining @ 6 hours” value ([4]; Rat plasma, 1 μM, 37° C.) was 101.20%. The recovery at 6 h, 1 µM ([4]; SD, rat) was 105%, the recovery at 6 h, 1 µM ([4]; Sprague-Dawley (SD), rat) was 101% and the fraction unbound at 6 h, 1 μM ([4]; Sprague-Dawley, rat, plasma) was 0.0045. The “% Remaining @ 6 hours” value ([4]; rat plasma) was 109.42%.
